Experimental data from patent EP0051773A1, “Penicillins, their salts, process for their preparation and pharmaceutical compositions containing them” (Dr. Karl Thomae GmbH, priority 1980, dated 1982).
≈ marks a conversion by molar mass, not a printed value.

Key:
Assay in all cases: serial dilution test in microtiter system (bacteriostasis, MIC)
Type in all cases: cell-based
[1] = system: Serratia marcescens ATCC 13 880; conditions: ATCC13, liquid medium, 18 to 20 h at 37°C, read-out: MHK-Werte Serr. marcesc. ATCC 13 880
Protocol: (§1) Für die Untersuchungen wurde die Methode des Reihenverdünnungstestes im Mikrotitersystem angewandt. Die Prüfung der Substanzen auf Bakteriostase erfolgte in flüssigem Medium. Es wurde die Bakteriostasewirkung bei folgenden Konzentrationen untersucht.
(§2) Es wurde ein Nährboden folgender Zusammensetzung benutzt: 10 g Pepton, 8 g Fleischextrakt-Oxoid, 3 g Natriumschlorid, 2 g sek. Natriumphosphat werden mit dest. Wasser auf 1000 ml aufgefüllt (pH 7,2-7,4). Lediglich bei der Testung gegen Streptokokken wurde 1% Glucose hinzugefügt. Das Alter der Primärkulturen betrug etwa 20 Stunden. Die Einstellung der Keimsuspension erfolgte am Photometer (nach "Eppendorf") (Reagenzglas-Durchmesser 14 mm, Filter 546 nm) anhand der Trübung einer Bariumsulfat-Vergleichssuspension, die durch eine Bariumsulfat-Aufschwemmung erzeugt wurde, welche durch die Zugabe von 3,0 ml 1%ige Bariumchloridlösung in 97 ml 1%ige Schwefelsäure entstand. Nach der Einstellung wurden Streptococcus Aronson im Verhältnis 1:15 und die übrigen Testkeime im Verhältnis 1:1500 mit einer Kochsalzlösung weiter verdünnt.
(§3) 16 mg der jeweiligen Substanz wurden in 10 ml-Meßkolben eingewogen und mit dem Lösungsmittel bis zur Marke aufgefüllt. Die weitere Verdünnungsreihe wurde mit destilliertem Wasser oder dem jeweiligen Lösungsmittel hergestellt.
(§4) Die Vertiefungen der Mikrotiterplatten wurden mit 0,2 ml Nährmedium, 0,01 ml der entsprechenden Substanzverdünnung und mit einem Tropfen Keimsuspension (0,01 ml) beschickt und 18 bis 20 Stunden bei 37°C bebrütet. Eine Lösungsmittelkontrolle wurde stets mitgeführt.
(§5) Die Ablesung wurde makroskopisch vorgenommen, wobei die jeweilige Grenkonzentration (= niedrigste noch bakteriostatisch wirksame Konzentration) ermittelt wurde.
(§6) Als Testorganismen wurden benützt: - Staphylococcus aureus SG 511, Escherichia coli ATCC 11 775, Pseudomonas aeruginosa Hamburgensis und Walter, Serratia marcescens ATCC 13 880, Klebsiella pneumoniae ATCC 10 031 und BC 6, Proteus mirabilis Hamburgensis, Proteus rettgeri BC 7 und Enterobacter cloacae ATCC 13 047.
(§7) In der folgenden Tabelle 2 sind die ermittelten minimalen Hemmkonzentrationen (MIC) für typische Vertreter der erfindungsgemäßen Verbindungen aufgeführt, wobei sich die Ziffern auf die Penicilline der Tabelle 1 Seite 18 beziehen.

[2] = system: Enterobacter cloacae ATCC 13 047; conditions: ATCC13, liquid medium, 18 to 20 h at 37°C, read-out: MHK-Werte Eb. cloacae 13 047
Protocol: as §1, §2, §3, §4, §5, §6, §7

[3] = system: Pseudomonas aeruginosa Walter; conditions: liquid medium, 18 to 20 h at 37°C, read-out: MHK-Werte Pseud. aerug. Walter
Protocol: as §1, §2, §3, §4, §5, §6, §7

[4] = system: Proteus mirabilis Hamburgensis; conditions: liquid medium, 18 to 20 h at 37°C, read-out: MHK-Werte Prot. mir. Hbg.
Protocol: as §1, §2, §3, §4, §5, §6, §7

[5] = system: Pseudomonas aeruginosa Hamburgensis; conditions: liquid medium, 18 to 20 h at 37°C, read-out: MHK-Werte Pseud. aerug. Hbg.
Protocol: as §1, §2, §3, §4, §5, §6, §7

[6] = system: Klebsiella pneumoniae ATCC 10 031; conditions: ATCC10, liquid medium, 18 to 20 h at 37°C, read-out: MHK-Werte Kl. pneum. ATCC 10 031
Protocol: as §1, §2, §3, §4, §5, §6, §7

[7] = system: Klebsiella pneumoniae BC 6; conditions: BC6, liquid medium, 18 to 20 h at 37°C, read-out: MHK-Werte Kl. pneum. BC 6
Protocol: as §1, §2, §3, §4, §5, §6, §7

Proteus rettgeri BC 7 = conditions: Providencia rettgeri, BC7; liquid medium, 18 to 20 h at 37°C; read-out: MHK-Werte Prot. rettg. BC 7
Protocol: as §1, §2, §3, §4, §5, §6, §7

[8] = system: Escherichia coli ATCC 11 775; conditions: ATCC11, liquid medium, 18 to 20 h at 37°C, read-out: MHK-Werte E.coli ATCC 11 755
Protocol: as §1, §2, §3, §4, §5, §6, §7

[9] = system: Staphylococcus aureus SG 511; conditions: SG511, liquid medium, 18 to 20 h at 37°C, read-out: MHK-Werte Staph. aureus SG 511
Protocol: as §1, §2, §3, §4, §5, §6, §7

Row | SMILES | MIC [1] | MIC [2] | MIC [3] | MIC [4] | MIC [5] | MIC [6] | MIC [7] | MIC (Proteus rettgeri BC 7) | MIC [8] | MIC [9]
1 | CC1(C)S[C@@H]2[C@H](NC(=O)[C@H](NC(=O)Nc3cnccc3O)c3ccccc3)C(=O)N2[C@H]1C(=O)O [C, D-α-[(4-Hydroxy-3-pyridyl)-ureido]-benzylpenicillin-Natrium, reference compound] | 0.5 mg/L (≈ 1.03 µM) | 8 mg/L (≈ 16.5 µM) | 8 mg/L (≈ 16.5 µM) | 0.25 mg/L (≈ 0.515 µM) | 8 mg/L (≈ 16.5 µM) | 32 mg/L (≈ 65.9 µM) | 32 mg/L (≈ 65.9 µM) | 1 mg/L (≈ 2.06 µM) | 2 mg/L (≈ 4.12 µM) | 
2 | CC1(C)S[C@@H]2[C@H](NC(=O)[C@H](NC(=O)Nc3cnc(Nc4ccc(S(N)(=O)=O)cc4)nc3O)c3cccs3)C(=O)N2[C@H]1C(=O)O [Verbindung 2] | 0.25 mg/L (≈ 0.377 µM) | 2 mg/L (≈ 3.02 µM) | 2 mg/L (≈ 3.02 µM) | 0.06 mg/L (≈ 0.0905 µM) | 4 mg/L (≈ 6.04 µM) | 2 mg/L (≈ 3.02 µM) | 1 mg/L (≈ 1.51 µM) | 0.5 mg/L (≈ 0.754 µM) | 0.5 mg/L (≈ 0.754 µM) | 0.12 mg/L (≈ 0.181 µM)
3 | CC1(C)S[C@@H]2[C@H](NC(=O)[C@H](NC(=O)Nc3cnc(Nc4cccc(S(N)(=O)=O)c4)nc3O)c3ccc(O)cc3)C(=O)N2[C@H]1C(=O)O [Verbindung 5] | 0.25 mg/L (≈ 0.372 µM) | 1 mg/L (≈ 1.49 µM) | 2 mg/L (≈ 2.97 µM) | 0.06 mg/L (≈ 0.0892 µM) | 2 mg/L (≈ 2.97 µM) | 2 mg/L (≈ 2.97 µM) | 2 mg/L (≈ 2.97 µM) | 0.25 mg/L (≈ 0.372 µM) | 0.25 mg/L (≈ 0.372 µM) | 0.5 mg/L (≈ 0.743 µM)
4 | CNS(=O)(=O)c1ccc(Nc2ncc(NC(=O)N[C@@H](C(=O)N[C@@H]3C(=O)N4[C@@H]3SC(C)(C)[C@@H]4C(=O)O)c3ccccc3)c(O)n2)cc1 [Verbindung 8] | 0.12 mg/L (≈ 0.179 µM) | 0.5 mg/L (≈ 0.745 µM) | 2 mg/L (≈ 2.98 µM) | 0.03 mg/L (≈ 0.0447 µM) | 1 mg/L (≈ 1.49 µM) | 0.5 mg/L (≈ 0.745 µM) | 1 mg/L (≈ 1.49 µM) | 0.5 mg/L (≈ 0.745 µM) | 0.12 mg/L (≈ 0.179 µM) | 0.12 mg/L (≈ 0.179 µM)
5 | CNS(=O)(=O)c1ccc(Nc2ncc(NC(=O)N[C@@H](C(=O)N[C@@H]3C(=O)N4[C@@H]3SC(C)(C)[C@@H]4C(=O)O)c3ccc(O)c(Cl)c3)c(O)n2)cc1 [Verbindung 13] | 0.25 mg/L (≈ 0.347 µM) | 1 mg/L (≈ 1.39 µM) | 2 mg/L (≈ 2.77 µM) | 0.25 mg/L (≈ 0.347 µM) | 2 mg/L (≈ 2.77 µM) | 2 mg/L (≈ 2.77 µM) | 1 mg/L (≈ 1.39 µM) | 0.5 mg/L (≈ 0.693 µM) | 0.25 mg/L (≈ 0.347 µM) | 0.25 mg/L (≈ 0.347 µM)
6 | CN(C)S(=O)(=O)c1ccc(Nc2ncc(NC(=O)N[C@@H](C(=O)N[C@@H]3C(=O)N4[C@@H]3SC(C)(C)[C@@H]4C(=O)O)c3ccc(O)cc3)c(O)n2)cc1 [Verbindung 15] | 0.25 mg/L (≈ 0.357 µM) | 2 mg/L (≈ 2.85 µM) | 2 mg/L (≈ 2.85 µM) | 0.12 mg/L (≈ 0.171 µM) | 2 mg/L (≈ 2.85 µM) | 1 mg/L (≈ 1.43 µM) | 1 mg/L (≈ 1.43 µM) | 1 mg/L (≈ 1.43 µM) | 0.25 mg/L (≈ 0.357 µM) | 0.5 mg/L (≈ 0.714 µM)
7 | CC1(C)SC2C(NC(=O)C(NC(=O)Nc3cnc(Nc4ccc(S(C)(=O)=O)cc4)nc3O)c3ccc(O)c(Cl)c3)C(=O)N2C1C(=O)O (stereo not drawn) [Verbindung 25] | 0.25 mg/L (≈ 0.354 µM) | 4 mg/L (≈ 5.66 µM) | 2 mg/L (≈ 2.83 µM) | 0.12 mg/L (≈ 0.17 µM) | 2 mg/L (≈ 2.83 µM) | 1 mg/L (≈ 1.42 µM) | 1 mg/L (≈ 1.42 µM) | 0.5 mg/L (≈ 0.708 µM) | 0.25 mg/L (≈ 0.354 µM) | 0.25 mg/L (≈ 0.354 µM)
8 | CCCCS(=O)(=O)c1ccc(Nc2ncc(NC(=O)NC(C(=O)NC3C(=O)N4C3SC(C)(C)C4C(=O)O)c3ccc(O)cc3)c(O)n2)cc1 (stereo not drawn) [Verbindung 32] | 0.12 mg/L (≈ 0.168 µM) | 1 mg/L (≈ 1.4 µM) | 1 mg/L (≈ 1.4 µM) | 0.06 mg/L (≈ 0.0841 µM) | 2 mg/L (≈ 2.8 µM) | 1 mg/L (≈ 1.4 µM) | 0.5 mg/L (≈ 0.7 µM) | 0.25 mg/L (≈ 0.35 µM) | 0.12 mg/L (≈ 0.168 µM) | 0.12 mg/L (≈ 0.168 µM)
9 | CC1(C)SC2C(NC(=O)C(NC(=O)Nc3cnc(Nc4ccc(C(N)=O)cc4)nc3O)c3ccc(O)c(Cl)c3)C(=O)N2C1C(=O)O (stereo not drawn) [Verbindung 35] | 0.5 mg/L (≈ 0.745 µM) | 4 mg/L (≈ 5.96 µM) | 4 mg/L (≈ 5.96 µM) | 0.25 mg/L (≈ 0.373 µM) | 2 mg/L (≈ 2.98 µM) | 4 mg/L (≈ 5.96 µM) | 4 mg/L (≈ 5.96 µM) | 0.5 mg/L (≈ 0.745 µM) | 0.5 mg/L (≈ 0.745 µM) | 0.5 mg/L (≈ 0.745 µM)
10 | CC1(C)SC2C(NC(=O)C(NC(=O)Nc3cnc(Nc4ccc(S(N)(=O)=O)c(O)c4)nc3O)c3ccc(O)c(Cl)c3)C(=O)N2C1C(=O)O (stereo not drawn) [Verbindung 49] | 0.25 mg/L (≈ 0.346 µM) | 1 mg/L (≈ 1.38 µM) | 2 mg/L (≈ 2.77 µM) | 0.12 mg/L (≈ 0.166 µM) | 2 mg/L (≈ 2.77 µM) | 1 mg/L (≈ 1.38 µM) | 1 mg/L (≈ 1.38 µM) | 0.5 mg/L (≈ 0.691 µM) | 0.25 mg/L (≈ 0.346 µM) | 0.25 mg/L (≈ 0.346 µM)
11 | CC1(C)S[C@@H]2[C@H](NC(=O)C(NC(=O)Nc3cnc(Nc4ccc(C(N)=O)c(C(N)=O)c4)nc3O)c3ccc(O)cc3)C(=O)N2[C@H]1C(=O)O (stereo partly drawn) [Verbindung 55] | 0.25 mg/L (≈ 0.368 µM) | 2 mg/L (≈ 2.94 µM) | 1 mg/L (≈ 1.47 µM) | 0.12 mg/L (≈ 0.177 µM) | 1 mg/L (≈ 1.47 µM) | 2 mg/L (≈ 2.94 µM) | 4 mg/L (≈ 5.89 µM) | 0.5 mg/L (≈ 0.736 µM) | 0.25 mg/L (≈ 0.368 µM) | 0.25 mg/L (≈ 0.368 µM)
12 | CC(=O)Oc1ccc(CNc2ncc(NC(=O)NC(C(=O)N[C@@H]3C(=O)N4[C@@H]3SC(C)(C)[C@@H]4C(=O)O)c3ccc(O)cc3)c(O)n2)cc1 (stereo partly drawn) [Verbindung 59] | 0.5 mg/L (≈ 0.751 µM) | 2 mg/L (≈ 3 µM) | 2 mg/L (≈ 3 µM) | 0.06 mg/L (≈ 0.0901 µM) | 2 mg/L (≈ 3 µM) | 4 mg/L (≈ 6.01 µM) | 4 mg/L (≈ 6.01 µM) | 1 mg/L (≈ 1.5 µM) | 0.5 mg/L (≈ 0.751 µM) | 0.5 mg/L (≈ 0.751 µM)
13 | CC1(C)S[C@@H]2[C@H](NC(=O)C(NC(=O)Nc3cnc(NCc4ccc(F)cc4)nc3O)c3ccc(O)cc3)C(=O)N2[C@H]1C(=O)O (stereo partly drawn) [Verbindung 60] | 0.5 mg/L (≈ 0.799 µM) | 1 mg/L (≈ 1.6 µM) | 2 mg/L (≈ 3.2 µM) | 0.25 mg/L (≈ 0.4 µM) | 2 mg/L (≈ 3.2 µM) | 2 mg/L (≈ 3.2 µM) | 2 mg/L (≈ 3.2 µM) | 0.5 mg/L (≈ 0.799 µM) | 0.25 mg/L (≈ 0.4 µM) | 0.25 mg/L (≈ 0.4 µM)
